One may read the melting point as the temperature of the solid-liquid transition. `Cl.Cl.Cl.Nc1cccc(-c2cncc(OC[C@H]3CCCN3)c2)c1` [Example 88, 5-(3-Aminophenyl)-3-(2-(R)-pyrrolidinylmethoxy)pyridine Trihydrochloride] registered a melting point of 240 to 242 °C.

Turning to `CC(C)(C)C=CC=Cc1cncc(OC[C@H]2CCCN2)c1.Cl.Cl` [Example 138, 5-(5,5-Dimethyl-1,3-hexadienyl)-3-(2-(R)-pyrrolidinylmethoxy)pyridine Dihydrochloride], the melting point fell in the range of 145 to 147 °C.

In turn, `Cl.Cl.Clc1ccc(-c2cncc(OC[C@H]3CCCN3)c2)cc1` [Example 139, 5-(4-Chlorophenyl)-3-(2-(R)-pyrrolidinylmethoxy)pyridine Dihydrochloride] had a melting point of 183 to 185 °C.

As to `CCCCCCC#Cc1cc(OC[C@@H]2CCCN2)cnc1Cl.Cl.Cl` [Example 140, 6-Chloro-5-(1-octynyl)-3-(2-(S)-pyrrolidinylmethoxy)pyridine Dihydrochloride], the melting point lay within 133 to 135 °C.

Take `CN1CCC[C@@H]1COc1cncc(-c2ccc(Cl)cc2)c1.Cl.Cl` [Example 141, 5-(4-Chlorophenyl)-3-(1-methyl-2-(R)-pyrrolidinylmethoxy)pyridine Dihydrochloride]: the melting point fell in the range of 223 to 225 °C.

Regarding `CCCCCCC#Cc1cncc(OC[C@H]2CCCN2C)c1.Cl.Cl` [Example 145, 3-(1-Methyl-2-(R)-pyrrolidinylmethoxy)-5-(1-octynyl)pyridine Dihydrochloride], the melting point fell in the range of 102 to 105 °C.

As to `CCCCCCC#Cc1cc(OC[C@@H]2CCCN2C)cnc1Cl.Cl.Cl` [Example 146, 6-Chloro-3-(1-methyl-2-(S)-pyrrolidinylmethoxy)-5-(1-octynyl)pyridine Dihydrochloride], the melting point lay in the range of 223 to 225 °C.

For `CN1CCC[C@H]1COc1cnc(Cl)c(-c2cccnc2)c1.Cl.Cl` [Example 147, 6-Chloro-3-(1-methyl-2-(S)-pyrrolidinylmethoxy)-5-(3-pyridyl)pyridine Dihydrochloride], the melting point lay within 108 to 110 °C.

The compound `CN1CCC[C@H]1COc1cnc(Cl)c(C=CC=CC(C)(C)C)c1.Cl.Cl` [Example 149, 6-Chloro-5-(5,5-dimethyl-1,3-hexadienyl)-3-(1-methyl-2-(S)-pyrrolidinylmethoxy)pyridine Dihydrochloride] came in with a melting point of 220 °C.

Compound `Cl.Cl.Clc1ccc(-c2cc(OC[C@@H]3CCCN3)cnc2Cl)cc1` [Example 150, 6-Chloro-5-(4-chlorophenyl)-3-(2-(S)-pyrrolidinylmethoxy)pyridine Dihydrochloride] returned a melting point of 86 to 89 °C.

Take `CN1CCC[C@H]1COc1cnc(Cl)c(-c2ccc(Cl)cc2)c1.Cl.Cl` [Example 151, 6-Chloro-5-(4-chlorophenyl)-3-(1-methyl-2-(S)-pyrrolidinylmethoxy)pyridine Dihydrochloride]: the melting point fell in the range of 183 to 185 °C.

Regarding `CN1CCC[C@H]1COc1cnc(Cl)c(-c2cccs2)c1.Cl.Cl` [Example 153, 6-Chloro-3-(1-methyl-2-(S)-pyrrolidinylmethoxy)-5-(2-thienyl)pyridine Dihydrochloride], the melting point was 160 to 163 °C.

For the compound `Cl.Nc1cccc(-c2cncc(OC[C@@H]3CCCN3)c2)c1` [Example 158, 5-(3-Aminophenyl)-3-(2-(S)-pyrrolidinylmethoxy)pyridine Hydrochlorid], the melting point fell in the range of 68 to 70 °C.

As for `CC(C)(C)C=CC=Cc1cncc(OC[C@@H]2CCCN2)c1.Cl.Cl` [Example 160, 5-(5,5-Dimethyl-1,3-hexadienyl)3-(2-(S)-pyrrolidinylmethoxy)pyridine Dihydrochloride], the melting point was 92 to 94 °C.

In turn, `C=Cc1cncc(OC[C@@H]2CCN2)c1.Cl.Cl` [Example 162, 3-(2-(S)-Azetidinylmethoxy)-5-ethenylpyridine Dihydrochloride] yielded a melting point of 88 to 90 °C.

In the case of `C=Cc1cncc(OC[C@@H]2CCCN2)c1.Cl.Cl` [Example 164, 5-Ethenyl-3-(2-(S)-pyrrolidinylmethoxy)pyridine Dihydrochloride], the melting point is 97 °C (dec.).

In the case of `C=Cc1cc(OC[C@H]2CCCN2)cnc1Cl.Cl` [Example 167, 6-Chloro-5-ethenyl-3-(2-(R)-pyrrolidinylmethoxy)pyridine Hydrochloride], the melting point was 182 to 184 °C.

Take `C=Cc1cc(OC[C@H]2CCCN2C)cnc1Cl.Cl` [Example 168, 6-Chloro-5-ethenyl-3-(1-methyl-2-(R)-pyrrolidinylmethoxy)pyridine Hydrochloride]: the melting point was in the range of 173 to 175 °C.

Turning to `Cl.Clc1ncc(OC[C@@H]2CCCN2)cc1-c1cncnc1` [Example 169, 6-Chloro-5-(5-pyrimidinyl)-3-(2-(S)-pyrrolidinylmethoxy)pyridine Hydrochloride], the melting point was 230 °C (dec.).

Take `CN1CC[C@H]1COc1cnc(Cl)c(-c2cncnc2)c1.Cl` [Example 170, 6-Chloro-3-(1-methyl-2-(S)-azetidinylmethoxy)-5-(5-pyrimidinyl)pyridine Hydrochloride]: the melting point is 143 to 144 °C.

On to `Cl.Cl.c1ncc(-c2cncc(OC[C@@H]3CCN3)c2)cn1` [Example 171, 3-(2-(S)-Azetidinylmethoxy)-5-(5-pyrimidinyl)pyridine Dihydrochloride], for which the melting point was 185 °C (dec.).

Consider `Cl.Cl.Clc1ncc(OC[C@@H]2CCN2)cc1-c1cncnc1` [Example 172, 3-(2-(S)-Azetidinylmethoxy)-6-chloro-5-(5-pyrimidinyl)pyridine Dihydrochloride], for which the melting point is 144 °C (dec.).

As to `Cl.Clc1ncc(OC[C@H]2CCCN2)cc1-c1cncnc1` [Example 173, 6-Chloro-5-(5-pyrimidinyl)-3-(2-(R)-pyrrolidinylmethoxy)pyridine Hydrochloride], the melting point is 210 °C (dec.).

`Cl.Cl.Cl.c1ncc(-c2cncc(OC[C@@H]3CCCN3)c2)cn1` [Example 174, 5-(5-Pyrimidinyl)-3-(2-(S)-pyrrolidinylmethoxy)pyridine Trihydrochloride] yielded a melting point of 110 to 112 °C.

In the case of `C#Cc1cc(OC[C@@H]2CCN2)cnc1Cl.Cl` [Example 175, 3-(2-(S)-Azetidinylmethoxy)-6-chloro-5-ethynylpyridine Hydrochloride], the melting point was 90 °C (dec.).

`C=CCc1cncc(OC[C@@H]2CCCN2C)c1.Cl.Cl` [Example 177, 5-Allyl-3-(1-methyl-2-(S)-pyrrolidinylmethoxy)pyridine Dihydrochloride] had a melting point of 65 to 67 °C.

`C=CCc1cc(OC[C@@H]2CCN2)cnc1Cl.Cl` [Example 178, 5-Allyl-3-(2-(S)-azetidinylmethoxy)-6-chloropyridine Hydrochloride] displayed a melting point of 90 to 92 °C.

`C=CCc1cc(OC[C@@H]2CCN2C)cnc1Cl.Cl` [Example 179, 5-Allyl-3-(1-methyl-2-(S)-azetidinylmethoxy)-6-chloropyridine Hydrochloride] gave a melting point of 109 to 111 °C.

Consider `CN1CCC[C@H]1COc1cnc(Cl)c(-c2cncnc2)c1.Cl` [Example 182, 6-Chloro-3-(1-methyl-2-(S)-pyrrolidinylmethoxy)-5-(5-pyrimidinyl)pyridine Hydrochloride], for which the melting point lay in the range of 200 to 202 °C.
